# Source: ChEMBL document CHEMBL1201862, “PubChem BioAssay data set” (2004)
# Activity calls are given as the source filed them.
# What was measured:
# [1] = CCR5-tropic HIV-1 fusion blockers – cell-based, CCR5-tropic Env, dose response (AID 2279); type: functional
# [2] = target: T1, Long-chain-fatty-acid--AMP ligase FadD28 (Mycobacterium tuberculosis, UniProt P9WQ59); test: Fluorescence polarization aasay to screen for inhibitors that compete for the binding of FadD28 to a bisubstrate Measured in Biochemical System Using Plate Reader - 2147-01_Inhibitor_Dose_CherryPick_Activity.; type: functional, Mycobacterium tuberculosis H37Rv
# T1 sequence (P9WQ59 whole entry): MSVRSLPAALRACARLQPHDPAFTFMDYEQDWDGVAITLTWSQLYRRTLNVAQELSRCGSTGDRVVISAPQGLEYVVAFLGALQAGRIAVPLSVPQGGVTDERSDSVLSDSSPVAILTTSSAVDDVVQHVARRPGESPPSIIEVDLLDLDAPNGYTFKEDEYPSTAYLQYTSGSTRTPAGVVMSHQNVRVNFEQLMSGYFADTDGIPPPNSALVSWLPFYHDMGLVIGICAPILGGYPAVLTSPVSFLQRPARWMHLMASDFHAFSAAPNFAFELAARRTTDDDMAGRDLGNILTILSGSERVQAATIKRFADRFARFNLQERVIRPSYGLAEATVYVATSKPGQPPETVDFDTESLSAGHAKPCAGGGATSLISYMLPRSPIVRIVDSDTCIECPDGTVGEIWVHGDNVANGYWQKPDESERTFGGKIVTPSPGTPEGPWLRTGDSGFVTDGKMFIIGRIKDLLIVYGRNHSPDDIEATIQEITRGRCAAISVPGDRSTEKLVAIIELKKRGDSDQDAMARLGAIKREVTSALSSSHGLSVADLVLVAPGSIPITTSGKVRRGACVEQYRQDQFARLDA
# [3] = target: T2, Voltage-gated N-type calcium channel alpha-1B subunit/Amyloid beta A4 precursor protein-binding family A member 1 (Homo sapiens, UniProt Q00975+Q02410); type: protein assay
# T2 sequence (Q00975 whole entry): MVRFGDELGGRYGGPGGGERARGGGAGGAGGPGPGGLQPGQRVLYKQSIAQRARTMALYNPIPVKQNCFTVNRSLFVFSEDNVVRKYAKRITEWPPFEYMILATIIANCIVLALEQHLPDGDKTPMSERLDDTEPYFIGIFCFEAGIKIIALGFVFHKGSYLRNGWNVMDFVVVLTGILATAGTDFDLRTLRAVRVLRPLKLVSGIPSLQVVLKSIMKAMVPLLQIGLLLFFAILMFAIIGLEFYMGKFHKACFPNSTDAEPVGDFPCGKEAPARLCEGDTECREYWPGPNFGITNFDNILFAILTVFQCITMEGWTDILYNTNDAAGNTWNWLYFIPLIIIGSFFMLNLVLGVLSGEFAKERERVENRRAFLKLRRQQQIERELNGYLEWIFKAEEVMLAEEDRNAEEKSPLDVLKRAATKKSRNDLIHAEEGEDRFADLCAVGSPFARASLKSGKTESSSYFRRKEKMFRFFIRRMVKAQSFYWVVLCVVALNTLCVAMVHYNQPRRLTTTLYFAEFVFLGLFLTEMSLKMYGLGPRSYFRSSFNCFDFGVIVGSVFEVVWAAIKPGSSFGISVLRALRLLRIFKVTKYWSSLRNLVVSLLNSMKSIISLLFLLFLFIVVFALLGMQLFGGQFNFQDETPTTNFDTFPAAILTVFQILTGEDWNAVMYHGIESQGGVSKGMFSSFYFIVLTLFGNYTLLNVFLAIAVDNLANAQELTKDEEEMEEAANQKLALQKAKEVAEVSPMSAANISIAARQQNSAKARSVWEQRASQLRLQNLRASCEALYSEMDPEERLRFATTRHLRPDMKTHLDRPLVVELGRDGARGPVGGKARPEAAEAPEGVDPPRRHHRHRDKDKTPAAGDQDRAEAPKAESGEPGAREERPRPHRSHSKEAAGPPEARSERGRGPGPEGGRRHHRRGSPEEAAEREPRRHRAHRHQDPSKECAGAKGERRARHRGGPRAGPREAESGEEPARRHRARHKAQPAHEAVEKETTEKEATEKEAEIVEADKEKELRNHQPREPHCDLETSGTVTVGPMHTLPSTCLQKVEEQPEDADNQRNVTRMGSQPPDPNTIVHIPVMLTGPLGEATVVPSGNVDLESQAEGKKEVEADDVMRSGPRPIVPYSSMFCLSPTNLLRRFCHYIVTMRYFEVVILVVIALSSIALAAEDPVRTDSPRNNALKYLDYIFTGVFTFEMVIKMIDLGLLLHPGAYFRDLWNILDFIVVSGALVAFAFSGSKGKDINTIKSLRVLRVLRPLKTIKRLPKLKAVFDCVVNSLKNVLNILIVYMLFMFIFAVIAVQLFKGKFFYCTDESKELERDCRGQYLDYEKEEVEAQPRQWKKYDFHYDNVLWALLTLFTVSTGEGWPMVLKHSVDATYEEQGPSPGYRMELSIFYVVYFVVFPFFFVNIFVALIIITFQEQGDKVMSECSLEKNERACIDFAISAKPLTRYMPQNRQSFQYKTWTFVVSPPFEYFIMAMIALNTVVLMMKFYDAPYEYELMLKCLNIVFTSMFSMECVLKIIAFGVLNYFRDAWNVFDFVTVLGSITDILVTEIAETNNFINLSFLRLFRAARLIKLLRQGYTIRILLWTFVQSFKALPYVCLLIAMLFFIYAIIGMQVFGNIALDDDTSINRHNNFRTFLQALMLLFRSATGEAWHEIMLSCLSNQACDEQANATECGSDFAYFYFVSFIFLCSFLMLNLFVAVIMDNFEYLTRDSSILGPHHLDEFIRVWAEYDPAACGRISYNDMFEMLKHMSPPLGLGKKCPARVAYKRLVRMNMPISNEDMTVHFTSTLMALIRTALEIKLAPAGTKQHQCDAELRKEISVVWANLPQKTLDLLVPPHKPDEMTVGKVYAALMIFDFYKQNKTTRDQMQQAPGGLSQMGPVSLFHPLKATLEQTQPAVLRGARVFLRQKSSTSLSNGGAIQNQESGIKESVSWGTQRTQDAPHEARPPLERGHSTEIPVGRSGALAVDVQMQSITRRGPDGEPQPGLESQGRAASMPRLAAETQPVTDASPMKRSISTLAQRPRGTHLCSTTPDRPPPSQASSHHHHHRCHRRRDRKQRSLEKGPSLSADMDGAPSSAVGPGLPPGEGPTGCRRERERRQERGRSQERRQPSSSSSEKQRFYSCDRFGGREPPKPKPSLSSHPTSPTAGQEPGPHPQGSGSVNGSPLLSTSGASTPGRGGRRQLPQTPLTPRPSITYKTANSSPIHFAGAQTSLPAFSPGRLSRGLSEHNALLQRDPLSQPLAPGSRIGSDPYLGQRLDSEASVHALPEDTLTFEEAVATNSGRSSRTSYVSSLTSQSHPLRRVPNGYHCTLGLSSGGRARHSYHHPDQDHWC
# T2 sequence (Q02410 whole entry): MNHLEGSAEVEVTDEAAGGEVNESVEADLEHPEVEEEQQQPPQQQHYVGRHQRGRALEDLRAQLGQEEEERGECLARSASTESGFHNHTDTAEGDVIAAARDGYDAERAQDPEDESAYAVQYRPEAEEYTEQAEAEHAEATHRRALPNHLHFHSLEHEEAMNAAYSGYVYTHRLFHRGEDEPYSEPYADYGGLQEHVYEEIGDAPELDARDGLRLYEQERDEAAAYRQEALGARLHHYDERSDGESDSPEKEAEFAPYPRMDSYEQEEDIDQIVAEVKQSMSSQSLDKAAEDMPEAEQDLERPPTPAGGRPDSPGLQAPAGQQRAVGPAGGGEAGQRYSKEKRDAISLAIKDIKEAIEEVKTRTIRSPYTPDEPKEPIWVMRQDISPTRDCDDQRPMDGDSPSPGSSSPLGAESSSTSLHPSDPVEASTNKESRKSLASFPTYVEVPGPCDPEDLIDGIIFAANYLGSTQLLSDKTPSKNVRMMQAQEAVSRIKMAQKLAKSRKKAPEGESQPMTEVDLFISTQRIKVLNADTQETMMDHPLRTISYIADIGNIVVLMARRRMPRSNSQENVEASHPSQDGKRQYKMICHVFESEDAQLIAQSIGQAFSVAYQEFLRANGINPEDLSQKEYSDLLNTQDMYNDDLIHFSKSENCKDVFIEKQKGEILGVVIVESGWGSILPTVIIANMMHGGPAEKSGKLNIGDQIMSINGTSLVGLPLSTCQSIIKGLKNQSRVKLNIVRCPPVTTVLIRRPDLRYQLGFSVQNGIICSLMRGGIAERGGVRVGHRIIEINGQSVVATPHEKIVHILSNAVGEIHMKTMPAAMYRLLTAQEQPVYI
# [4] = target: T2, Voltage-gated N-type calcium channel alpha-1B subunit/Amyloid beta A4 precursor protein-binding family A member 1; type: protein assay; remark: listed apart in the source
# [5] = target: Induced myeloid leukemia cell differentiation protein Mcl-1 (Homo sapiens, UniProt Q07820); type: functional
# [6] = target: T3, E3 ubiquitin-protein ligase XIAP (Homo sapiens, UniProt P98170); test: Counter Screen using XIAP-Bir3 for Chemical Antagonists of Bir1/2 domains of IAP-family anti-apoptotic proteins. [Related pubchem assays (depositor defined):AID1018, AID1449, AID1514, AID1638, AID1749, AID1750, AID488957, AID488963]
# T3 sequence (P98170 whole entry): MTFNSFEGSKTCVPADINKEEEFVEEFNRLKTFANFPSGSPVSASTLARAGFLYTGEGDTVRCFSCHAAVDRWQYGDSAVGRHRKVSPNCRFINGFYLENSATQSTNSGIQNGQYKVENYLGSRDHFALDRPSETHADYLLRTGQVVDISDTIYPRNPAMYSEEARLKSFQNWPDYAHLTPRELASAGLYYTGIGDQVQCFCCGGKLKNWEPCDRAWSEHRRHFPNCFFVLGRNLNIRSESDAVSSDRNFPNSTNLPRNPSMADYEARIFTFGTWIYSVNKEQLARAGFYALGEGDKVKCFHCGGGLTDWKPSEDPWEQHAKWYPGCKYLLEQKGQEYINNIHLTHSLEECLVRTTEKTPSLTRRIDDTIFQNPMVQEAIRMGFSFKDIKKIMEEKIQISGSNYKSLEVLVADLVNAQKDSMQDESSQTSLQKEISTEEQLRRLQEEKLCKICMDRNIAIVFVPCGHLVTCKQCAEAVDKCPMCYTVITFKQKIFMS
# [7] = target: T3, E3 ubiquitin-protein ligase XIAP; test: small molecules displacing peptide from XIAP – biochemical, IAP family, fluorescence polarization (AID 1018); type: functional
# [8] = target: Intestinal-type alkaline phosphatase (Homo sapiens, UniProt P09923); test: human intestinal alkaline phosphatase activators, dose response, biochemical, luminescence, uHTS hits (AID 463120); type: functional
# Sequence of Intestinal-type alkaline phosphatase (P09923 whole entry): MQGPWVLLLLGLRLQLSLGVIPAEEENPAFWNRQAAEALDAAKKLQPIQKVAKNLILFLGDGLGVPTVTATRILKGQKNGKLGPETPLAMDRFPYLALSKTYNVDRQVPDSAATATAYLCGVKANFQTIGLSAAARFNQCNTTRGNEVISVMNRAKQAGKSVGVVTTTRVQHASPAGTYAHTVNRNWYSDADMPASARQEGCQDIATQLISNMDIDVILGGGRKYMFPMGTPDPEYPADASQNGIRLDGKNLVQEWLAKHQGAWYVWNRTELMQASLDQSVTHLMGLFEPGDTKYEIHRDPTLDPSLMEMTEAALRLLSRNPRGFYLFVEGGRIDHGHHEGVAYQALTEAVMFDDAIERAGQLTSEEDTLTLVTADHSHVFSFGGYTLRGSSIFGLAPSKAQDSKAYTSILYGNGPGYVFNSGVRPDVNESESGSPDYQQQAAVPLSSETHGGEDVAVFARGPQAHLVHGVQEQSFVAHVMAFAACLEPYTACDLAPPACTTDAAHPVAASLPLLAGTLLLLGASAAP
# Prothrombin = Prothrombin (Bos taurus, UniProt P00735); test: thrombin protease inhibitors – biochemical, fluorescence polarization, uHTS hits, dose response (AID 602369); type: functional
# [9] = target: G-protein coupled receptor 55 (Homo sapiens, UniProt Q9Y2T6); test: inhibition of LPI-stimulated GPR55 beta-arrestin translocation – imaging, U2OS, beta-arrestin-GFP, LPI agonist, primary screen (AID 2013); type: functional;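 also: antagonist potency measured as reduced agonist-driven arrestin aggregation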
# Sequence of G-protein coupled receptor 55 (Q9Y2T6 whole entry, the tested form may be a part): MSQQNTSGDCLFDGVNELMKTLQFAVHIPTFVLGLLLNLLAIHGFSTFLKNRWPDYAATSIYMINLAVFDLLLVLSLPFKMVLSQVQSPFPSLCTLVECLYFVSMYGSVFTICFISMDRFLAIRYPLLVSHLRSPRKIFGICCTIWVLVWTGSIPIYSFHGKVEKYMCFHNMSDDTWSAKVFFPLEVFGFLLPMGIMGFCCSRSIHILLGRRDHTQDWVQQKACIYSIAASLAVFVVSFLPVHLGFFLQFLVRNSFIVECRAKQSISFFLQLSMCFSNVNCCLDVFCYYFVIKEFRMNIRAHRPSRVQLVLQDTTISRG
# [10] = target: T4, Sentrin-specific protease 1 (Homo sapiens, UniProt Q9P0U3); test: SENP1 catalytic domain blockers, concentration series – biochemical, kinetic FRET, dose response (AID 651697); type: functional; settings: read-out: IC50_Mean
# T4 sequence (Q9P0U3 whole entry): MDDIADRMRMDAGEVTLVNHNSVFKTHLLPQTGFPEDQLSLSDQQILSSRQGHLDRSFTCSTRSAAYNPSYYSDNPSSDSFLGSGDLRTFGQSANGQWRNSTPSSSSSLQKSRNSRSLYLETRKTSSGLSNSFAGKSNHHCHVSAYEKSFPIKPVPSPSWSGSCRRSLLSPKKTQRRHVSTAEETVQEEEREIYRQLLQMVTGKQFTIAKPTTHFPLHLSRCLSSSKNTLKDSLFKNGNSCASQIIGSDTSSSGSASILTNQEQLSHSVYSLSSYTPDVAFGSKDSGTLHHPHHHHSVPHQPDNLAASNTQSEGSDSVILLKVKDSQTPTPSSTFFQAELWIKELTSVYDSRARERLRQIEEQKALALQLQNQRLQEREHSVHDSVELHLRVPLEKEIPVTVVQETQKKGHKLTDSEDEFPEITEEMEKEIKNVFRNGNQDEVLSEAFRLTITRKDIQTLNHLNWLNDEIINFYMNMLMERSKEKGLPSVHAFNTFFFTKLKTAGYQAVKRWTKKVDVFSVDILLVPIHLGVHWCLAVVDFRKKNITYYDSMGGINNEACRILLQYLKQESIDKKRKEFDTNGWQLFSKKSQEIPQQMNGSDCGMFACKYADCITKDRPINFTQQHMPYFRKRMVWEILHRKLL
# [11] = target: 72 kDa type IV collagenase (Homo sapiens, UniProt P08253); test: Dose Response validation of uHTS RPN11 inhibitor hits using a MMP-2 Fluorescence assay.; type: functional
# [12] = target: T4, Sentrin-specific protease 1; test: Dose response confirmation of small molecule inhibitors of the catalytic domain of the SUMO protease, SENP1 in a FRET assay.; type: functional; settings: read-out: IC50_Mean
# [13] = target: T5, Calpain-2 catalytic subunit (Sus scrofa, UniProt P43367); test: m-calpain protease blockers, concentration series – biochemical, fluorogenic peptide substrate, dose response (AID 1420); type: functional
# T5 sequence (P43367 whole entry): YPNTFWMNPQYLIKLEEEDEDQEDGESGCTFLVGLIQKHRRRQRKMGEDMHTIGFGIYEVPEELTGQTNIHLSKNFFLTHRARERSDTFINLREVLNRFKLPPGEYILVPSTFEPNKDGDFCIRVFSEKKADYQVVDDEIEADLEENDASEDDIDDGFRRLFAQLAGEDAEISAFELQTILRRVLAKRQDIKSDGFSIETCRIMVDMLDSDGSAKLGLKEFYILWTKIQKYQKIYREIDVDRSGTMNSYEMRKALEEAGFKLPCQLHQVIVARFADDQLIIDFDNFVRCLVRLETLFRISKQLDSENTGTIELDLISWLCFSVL
# [14] = target: 26S proteasome non-ATPase regulatory subunit 14 (Homo sapiens, UniProt O00487); test: inhibition of proteasome subunit RPN11 – biochemical, fluorescence polarization, uHTS hits, confirmation (AID 602368); type: functional
# Sequence of 26S proteasome non-ATPase regulatory subunit 14 (O00487 whole entry): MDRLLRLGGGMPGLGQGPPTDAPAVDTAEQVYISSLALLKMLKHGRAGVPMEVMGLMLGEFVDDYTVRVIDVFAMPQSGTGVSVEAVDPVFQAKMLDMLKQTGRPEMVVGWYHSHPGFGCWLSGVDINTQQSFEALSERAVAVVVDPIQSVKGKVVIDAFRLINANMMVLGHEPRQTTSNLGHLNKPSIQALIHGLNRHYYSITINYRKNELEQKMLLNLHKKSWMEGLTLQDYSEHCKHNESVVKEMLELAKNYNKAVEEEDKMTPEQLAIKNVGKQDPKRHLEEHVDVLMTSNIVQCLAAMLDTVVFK
# [15] = target: Peroxisome proliferator-activated receptor gamma/Nuclear receptor coactivator 3 (Homo sapiens, UniProt P37231); test: (§1) TR-FRET dose response biochemical High Throughput Screening assay for agonists of the steroid receptor coactivator 3 (SRC-3) recruitment by the peroxisome proliferator-activated receptor gamma (PPAR gamma): non-selective agonists. [Related pubchem assays: 1301 (Confirmation screen.), 1048 (Primary screen.)]; type: functional
# [16] = target: Peroxisome proliferator-activated receptor gamma/Nuclear receptor coactivator 1 (Homo sapiens, UniProt P37231); test: as §1, with “1 (SRC-1)” for “3 (SRC-3)”, “assays (depositor defined):AID1300, AID1808, AID504735, AID631]” for “assays: 1301 (Confirmation screen.), 1048 (Primary screen.)]”; type: protein assay
# [17] = target: Peroxisome proliferator-activated receptor gamma/Nuclear receptor coactivator 2 (Homo sapiens, UniProt P37231); test: TR-FRET dose response biochemical High Throughput Screening assay for agonists of the steroid receptor coactivator 2 (SRC-2) recruitment by the peroxisome proliferator-activated receptor gamma (PPAR gamma): non-selective agonists. [Related pubchem assays: 1297, 1032 ]; type: functional
# [18] = target: T2, Voltage-gated N-type calcium channel alpha-1B subunit/Amyloid beta A4 precursor protein-binding family A member 1; test: disruptors of Mint-PDZ/N-type channel peptide interaction – biochemical, HTRF, SAR follow-up (AID 2489); type: functional
smiles,measurement,setting,value
Cc1c2c(=O)n(-c3nc4ccccc4s3)nc-2cc(O)n1Cc1ccccc1,IC50,[1],17.4 µM (active)
same,AC50,[2],20.5 µM (active)
same,IC50,[3],3.01 µM (active)
same,IC50,[4],> 50 µM (inactive)
same,IC50,[5],4.32 µM (active)
Nc1ncnc(Sc2ccc(Cl)cc2)c1[N+](=O)[O-],IC50,[6],> 100 µM (inactive)
same,IC50,[7],> 100 µM (not active)
COc1cc2cnc(Cl)nc2cc1OC,IC50,[6],> 100 µM (inactive)
same,IC50,[7],> 100 µM (not active)
O=C(CSc1nc[nH]n1)NCCc1ccccc1,EC50,[8],> 100 µM (inactive)
O=C(NCCSCc1ccccc1)c1ccc(C2SCC(=O)N2Cc2ccccc2)cc1 (stereo not drawn),IC50,Prothrombin,50.5 µM (active)
same,IC50,[9],1.49 µM (active)
same,IC50,[10],11 µM (active)
same,IC50,[11],> 100 µM (inactive)
same,IC50,[12],19.1 µM (active)
same,IC50,[13],4.77 µM (not active)
same,IC50,[14],37.5 µM (active)
O=C(CSc1ncnc2c1oc1ccccc12)NCc1ccc(F)cc1,EC50,[15],83.1 µM (not active)
same,EC50,[16],21.9 µM (inactive)
same,EC50,[17],20.5 µM (not active)
Cc1ccc(/C=C/C(=O)N2CCN(c3ncccn3)CC2)o1,IC50,[3],4.71 µM (active)
same,IC50,[18],> 56.8 µM (inactive)
same,IC50,[4],4.77 µM (active)
